{
  "source": "paper PMC7591920",
  "about": "“A protein tertiary structure mimetic modulator of the Hippo signalling pathway” (Nature Communications, 2020)",
  "key": {"[1]": {"system": "RKO cells", "assay": "Wound closure assay", "type": "cell-based", "method": "Ca. 100,000 RKO cells were seeded per well in a transparent ImageLock 96-well plate (#4379, Essen Bioscience) and treated with the samples the next day. Wound Healing Assay was performed using the IncuCyte® ZOOM system and the WoundMaker™ device (both Essen Bioscience). The scratch was performed according to manufacturer’s protocol and images were acquired every 2 h. Image-based analysis of wound closure was conducted using the IncuCyte ZOOM 2016B software (Essen Bioscience). Confluency within the wound area was normalized to the confluency at the time of scratch preparation and plotted using GraphPad Prism 6."}, "[2]": {"target": "T1, mTEAD4 (Mus musculus, UniProt Q62296)", "T1 construct": "Mouse TEAD4(210–427) cDNA fused with a 6x His-tag and a 3C protease cleavage site; 6x His-tag; 3C protease cleavage site; made in house; host or cells: E. coli BL21 DE3 RIL(K+)", "T1 sequence (Q62296 210-427)": "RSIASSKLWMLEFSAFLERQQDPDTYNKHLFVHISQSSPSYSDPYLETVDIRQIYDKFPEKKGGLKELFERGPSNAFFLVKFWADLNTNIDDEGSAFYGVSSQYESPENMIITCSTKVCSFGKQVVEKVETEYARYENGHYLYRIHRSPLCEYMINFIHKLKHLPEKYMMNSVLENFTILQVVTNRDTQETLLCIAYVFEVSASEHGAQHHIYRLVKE", "assay": "SPR binding to immobilised mTEAD4", "conditions": "mTEAD4 amine-coupled on CM5, multi-cycle, steady-state fit 1:1 model, 10 mM HEPES 150 mM NaCl 0.05% Tween-20 pH 7.4, 0.3% DMSO, 20 °C, Fig. 1 values n = 1 replicate", "method_in_brief": "(§1)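 Proteins amine-coupled (NHS/EDC) to CM5 chips from 10 mM MES pH 6.4; running buffer 10 mM HEPES, 150 mM NaCl, 0.05% Tween-20, pH 7.4, 20 °C, 30 µL min^−1. Multi-cycle kinetics: seven threefold analyte dilutions from 30 µM, 45 s contact, 6-min dissociation, reference-surface subtracted.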"}, "[3]": {"system": "RKO cells", "assay": "Sub-cellular (cytoplasmic, nuclear) peptide concentration in RKO cells by UPLC-MS", "conditions": "for Sub-cellular drug content, Cytoplasm / Sub-cellular drug content, Cytoplasm, Measured concentration / Sub-cellular drug content, Nuclear / Sub-cellular drug content, Nuclear, Measured concentration: n = 2"}, "[4]": {"target": "T2, GST-hTEAD1 / biotin-VGL4 (Homo sapiens, UniProt P28347)", "T2 construct": "CDNA of hTEAD1(209–426) fused with an N-terminal GST tag; made in house; host or cells: Escherichia coli BL21 DE3 RIL(K+); bait peptide synthetic", "T2 sequence (P28347 209-426)": "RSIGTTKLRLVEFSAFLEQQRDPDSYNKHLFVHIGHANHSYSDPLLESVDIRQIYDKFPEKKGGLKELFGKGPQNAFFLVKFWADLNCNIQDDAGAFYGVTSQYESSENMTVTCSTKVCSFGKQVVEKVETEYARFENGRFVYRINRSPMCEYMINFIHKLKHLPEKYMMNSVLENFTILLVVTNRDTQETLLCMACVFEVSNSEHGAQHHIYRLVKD", "assay": "Competition pull-down of GST-hTEAD1 with immobilised biotin-VGL4", "type": "biochemical", "conditions": "GST-hTEAD1 1 µM", "method": "Beads were then extensively washed with the incubation buffer followed by protein elution after boiling the beads at 95 °C for 10 min in 25 µL of SDS loading buffer. SDS PAGE was performed using standard methods and the gel was visualized after Coomassie staining with a Li-COR Fc Imager."}, "[5]": {"target": "T3, GST-hTEAD1 (Homo sapiens, UniProt P28347)", "T3 construct": "CDNA of hTEAD1(209–426) fused with an N-terminal GST tag; made in house; host or cells: Escherichia coli BL21 DE3 RIL(K+)", "T3 sequence (P28347 209-426)": "as above", "assay": "SPR binding to immobilised GST-hTEAD1", "conditions": "GST-hTEAD1 amine-coupled on CM5, multi-cycle, steady-state fit 1:1 model, 10 mM HEPES 150 mM NaCl 0.05% Tween-20 pH 7.4, 0.3% DMSO, 20 °C, Fig. 1 values n = 1 replicate", "method_in_brief": "as §1"}, "[6]": {"system": "YAP–TEAD interaction", "assay": "Proximity ligation assay (PLA) in RKO cells", "type": "cell-based", "conditions": "24 h incubation, c = 30 µM", "method": "Ca. 5000 RKO cells were seeded per well in black 96-well plates with glass bottom (#5241-20, MoBiTec) and treated with the peptides or DMSO as vehicle control. After 24 h, the cells were fixed for 10 min using 4% paraformaldehyde (#UN2209, AppliChem) in PBS prior to permeabilization with 0.1% Triton X-100 (#39795.02, Serva) in PBS for 10 min. […] The cells were treated with the corresponding PLA probes (donkey anti-rabbit PLUS, #DUO92002, dilution 1:5; donkey anti-mouse MINUS, #DUO92004, dilution 1:5, Sigma-Aldrich) and with the Duolink In Situ Detection Orange Kit (#DUO92007, Sigma-Aldrich) for ligation and amplification according to the manufacturer's instructions. Finally, the cells were treated with 1 μg mL^-1 DAPI (#D9542, Sigma-Aldrich) to stain nuclei for further microscopy analysis. Images were acquired using a Zeiss Observer Z1 microscope with an 63× oil objective. Picture data were analysed by the ImageJ “analyze particles” macro to count PLA spots per cell. Ten pictures were counted for each condition per experiment. Statistical analysis was performed using Student's paired t test."}, "[7]": {"system": "rat heart cells", "assay": "Cell toxicity assessment on rat heart cells in culture", "conditions": "c(peptide) = 10 µM", "method": "whole heart cells monitored by fluorescence microscopy after 90 minutes treatments (scale bar: 25 µm), number of […]\n4E as well as control compounds (SB203580, CHIR99021) on rat heart cells in culture (c(peptide) = 10 µM). Number of independent biological replicates: n = 6, error bars = SEM. […]\ncytometry analysis of live cells after 90 min incubation at 5 µM: Representative histogram plot, (-) DMSO control). Source data are provided as a Source Data file.\n(1 picture or pasted object on this page, not shown here)"}, "[8]": {"conditions": "25 µM compound, 90 minutes, fractionation, UPLC-MS"}, "[9]": {"conditions": "25 µM compound, 24 hours, fractionation, UPLC-MS"}},
  "note": "Bridge positions count the residues as written; N and C are the ends. Square brackets hold non-standard residues; d marks the D form. Peptide text beside a SMILES is read from it. AEEA = NCCOCCOCC(=O)O",
  "data": [
    {"smiles": "CC[C@H](C)[C@@H]1NC(=O)[C@H](CCC(N)=O)NC(=O)[C@H](CC(C)C)NC(=O)[C@H](Cc2c[nH]c3ccccc23)NC(=O)[C@H]([C@@H](C)O)NC(=O)[C@H](CC(=O)O)NC(=O)CNC(=O)[C@H](CC(C)C)NC(=O)[C@H](C)NC(=O)[C@H](CCCCN)NC(=O)[C@H](C)NC(=O)[C@H](Cc2ccccc2)NC(=O)[C@H](Cc2c[nH]cn2)NC(=O)[C@H](CC(=O)O)NC(=O)[C@@H](NC(=O)[C@@H](NC(=O)[C@H](CO)NC(=O)COCCOCCNC(=O)[C@H](CCC(N)=O)NC(=O)[C@@H]2CCCN2C(=O)[C@H](CCCNC(=N)N)NC(=O)[C@H](CCCNC(=N)N)NC(=O)[C@H](CCCNC(=N)N)NC(=O)[C@H](CCC(N)=O)NC(=O)[C@H](CCCNC(=N)N)NC(=O)[C@H](CCCNC(=N)N)NC(=O)[C@H](CCCCN)NC(=O)[C@H](CCCCN)NC(=O)[C@H](CCCNC(=N)N)NC(=O)CNC(C)=O)C(C)C)CCC(=O)NCCCC[C@@H](C(=O)N[C@@H](C)C(=O)N[C@@H](C)C(N)=O)NC1=O", "note": "[compound 7] (Ac-GRKKRRQRRRPQ[AEEA]SVEDHFAKALGDTWLQIKAA-NH2; lactam 16-31)", "values": [
      {"measurement": "Effect on wound closure", "setting": "[1]; c = 30 µM, 48 h treatment", "value": "considerably increased wound closure"},
      {"measurement": "Wound closure (%)", "setting": "[1]; dose-dependent, 1 µM peptide 7, mean of n = 3", "value": 53.07, "unit": "%"},
      {"measurement": "Wound closure (%)", "setting": "[1]; dose-dependent, 5 µM peptide 7, mean of n = 3", "value": 61.51, "unit": "%"},
      {"measurement": "Wound closure (%)", "setting": "[1]; dose-dependent, 10 µM peptide 7, mean of n = 3", "value": 67.72, "unit": "%"},
      {"measurement": "Wound closure (%)", "setting": "[1]; dose-dependent, 30 µM peptide 7, mean of n = 3", "value": 76.06, "unit": "%"},
      {"measurement": "Wound closure (%)", "setting": "[1]; time-dependent, 12 hours, mean of n = 3", "value": 26.59, "unit": "%"},
      {"measurement": "Wound closure (%)", "setting": "[1]; time-dependent, 24 hours, mean of n = 3", "value": 49.56, "unit": "%"},
      {"measurement": "Wound closure (%)", "setting": "[1]; time-dependent, 36 hours, mean of n = 3", "value": 65.47, "unit": "%"},
      {"measurement": "Wound closure (%)", "setting": "[1]; time-dependent, 48 hours, mean of n = 3", "value": 75.27, "unit": "%"},
      {"measurement": "Kd", "setting": "[2]", "value": "1500 ± 1000", "unit": "nM"},
      {"measurement": "Sub-cellular drug content, Cytoplasm", "setting": "[3]; [8]", "value": 0.07968, "unit": "nmol"},
      {"measurement": "Sub-cellular drug content, Cytoplasm, Measured concentration", "setting": "[3]; [8]", "value": 265.5865, "unit": "nM"},
      {"measurement": "Sub-cellular drug content, Nuclear", "setting": "[3]; [8]", "value": 0.1853, "unit": "nmol"},
      {"measurement": "Sub-cellular drug content, Nuclear, Measured concentration", "setting": "[3]; [8]", "value": "123.5385 ± 6.5745", "unit": "nM"},
      {"measurement": "Sub-cellular drug content, Cytoplasm", "setting": "[3]; [9]", "value": 0.04677, "unit": "nmol"},
      {"measurement": "Sub-cellular drug content, Cytoplasm, Measured concentration", "setting": "[3]; [9]", "value": "155.914 ± 40.331", "unit": "nM"},
      {"measurement": "Sub-cellular drug content, Nuclear", "setting": "[3]; [9]", "value": 0.06065, "unit": "nmol"},
      {"measurement": "Sub-cellular drug content, Nuclear, Measured concentration", "setting": "[3]; [9]", "value": "202.161 ± 23.082", "unit": "nM"},
      {"measurement": "loss of cytosolic concentration between 90 min and 24 h incubation", "setting": "[3]; 25 µM, authors' response in peer review file", "value": 47, "unit": "%"},
      {"measurement": "pMol/mg", "setting": "[3]; Cytoplasm, 25 µM compound, 90 minutes (1.5 hrs), replicate 1", "value": 104.1, "unit": "pMol/mg"},
      {"measurement": "pMol/mg", "setting": "[3]; Cytoplasm, 25 µM compound, 90 minutes (1.5 hrs), replicate 2", "value": 74.3, "unit": "pMol/mg"},
      {"measurement": "pMol/mg", "setting": "[3]; Cytoplasm, 25 µM compound, 24 hours, replicate 1", "value": 73.3, "unit": "pMol/mg"},
      {"measurement": "pMol/mg, Mean", "setting": "[3]; Nuclear, 25 µM compound, 90 minutes (1.5 hrs), mean of 2 replicates", "value": 231.15, "unit": "pMol/mg"},
      {"measurement": "pMol/mg", "setting": "[3]; Nuclear, 25 µM compound, 24 hours, replicate 1", "value": 336.5, "unit": "pMol/mg"},
      {"measurement": "Cytoplasmic concentration of peptide", "setting": "[3]; cytoplasmic fraction, UPLC-MS, mean of n = 2", "value": "89.2 pMols/mg of protein"},
      {"measurement": "Nuclear concentration of peptide", "setting": "[3]; nuclear fraction, UPLC-MS, mean of n = 2", "value": "209 pMols/mg of protein"},
      {"measurement": "Detection in cytoplasmic and nuclear fractions", "setting": "[3]; unlabelled peptide 25 µM, 90 min and 24 h, fractionation, UPLC-MS", "value": "found in both compartments"},
      {"measurement": "required concentration for VGL4 competition in the pull-down assay", "setting": "[4]; immobilised biotin-VGL4, 2.5 h", "value": "ca. 100 µM"},
      {"measurement": "Competition with TEAD–VGL4 complex formation (pull-down)", "setting": "[4]; peptide 50 and 200 µM, biotin-VGL4 on streptavidin beads, 2.5 h, SDS-PAGE, n = 1", "value": "compete with TEAD–VGL4 complex formation"},
      {"measurement": "Kd", "setting": "[5]", "value": "830 ± 780", "unit": "nM"},
      {"measurement": "Effect on YAP–TEAD complexes (PLA)", "setting": "[6]", "value": "an increase in YAP–TEAD complexes"},
      {"measurement": "Total cell number (% DMSO control)", "setting": "[7]; raw data replicate 1", "value": 121.364, "unit": "% DMSO control"},
      {"measurement": "Total cell number (% DMSO control)", "setting": "[7]; raw data replicate 2", "value": 169.336, "unit": "% DMSO control"},
      {"measurement": "Total cell number (% DMSO control)", "setting": "[7]; raw data replicate 3", "value": 227.316, "unit": "% DMSO control"},
      {"measurement": "Total cell number (% DMSO control)", "setting": "[7]; raw data replicate 4", "value": 141.087, "unit": "% DMSO control"},
      {"measurement": "Total cell number (% DMSO control)", "setting": "[7]; raw data replicate 5", "value": 122.138, "unit": "% DMSO control"},
      {"measurement": "Total cell number (% DMSO control)", "setting": "[7]; raw data replicate 6", "value": 106.984, "unit": "% DMSO control"}
    ]}
  ]
}
